One test has as its target T1, human NPY2R (Homo sapiens, UniProt P49146).
T1 construct: expressed in transfected cells; host or cells: CHO-K1 Cre-luc reporter cells (pAKKO1114/hNPY2R#481 No. 88 cells)
T1 sequence (P49146 1-381): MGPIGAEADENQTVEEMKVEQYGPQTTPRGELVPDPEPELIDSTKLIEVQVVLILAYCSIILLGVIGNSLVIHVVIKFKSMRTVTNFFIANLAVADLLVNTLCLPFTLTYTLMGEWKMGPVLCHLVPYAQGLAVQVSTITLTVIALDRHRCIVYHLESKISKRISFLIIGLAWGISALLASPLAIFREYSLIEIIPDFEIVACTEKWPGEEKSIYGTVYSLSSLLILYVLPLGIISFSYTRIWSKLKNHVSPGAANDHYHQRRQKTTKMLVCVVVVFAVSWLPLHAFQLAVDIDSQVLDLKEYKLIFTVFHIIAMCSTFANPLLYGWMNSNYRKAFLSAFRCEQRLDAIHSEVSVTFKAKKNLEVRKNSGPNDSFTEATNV
In words: Reporter assay of human NPY2R gene (agonist activity, decrease in intracellular cAMP as index). The test is classed as cell-based. The conditions noted are these: Cre-luc reporter, hNPY2R CHO-K1 cells, forskolin 1.2 μM, 4 hours; read-out: Agonist activity (EC50) hY2R. The text has this: Evaluation of Agonist Activity Against Human NPY2R, Human GIPR, and Human GLP-1R Using Change in Intracellular cAMP Concentration as Index
The human NPY2R gene having a sequence identical to the sequence of GenBank Accession No. AC104407 was cloned into pAKKO1114 vector to prepare hNPY2R/pAKKO1114. Next, pGL4.29 (Promega) was introduced to CHO-K1 cells, which were then screened with hygromycin to construct Cre-luc reporter cells. These cells were cotransfected with hNPY2R/pAKKO1114 and pcDNA3.1 (Life Technologies Corp.), and the cells were screened with geneticin. Next, a cell line induced to express luciferase, i.e., pAKKO1114/hNPY2R#481 No. 88 cells, were selected from the obtained transformants by the addition of human PYY (3-36).
The pAKKO1114/hNPY2R#481 No. 88 cells were inoculated at a cell density of 25 μL/well (5,000 cells/well) to a 384-well white plate (Corning, 3570), and cultured overnight in Ham F12 medium containing 10% fetal bovine serum, 100 U/mL penicillin and 100 μg/mL streptomycin in a CO2 incubator of 37° C. On the next day, the medium was removed, and an assay medium (Ham F12 medium containing 0.1% BSA, 100 U/mL penicillin and 100 μg/mL streptomycin) containing forskolin (final concentration: 1.2 μM) was added at a concentration of 25 μL/well to the cells. Next, an assay medium containing a test compound was added at a concentration of 5 μL/well to the cells, and the resultant cells were incubated for 4 hours in a CO2 incubator of 37° C. to give the final concentration of 1 μM. SteadyGlo (Promega) was added thereto at a concentration of 30 μL/well, and the mixture was left standing for 20 minutes with light shielded. The luciferase activity was measured using a plate reader Envision (PerkinElmer). The luciferase activity from the addition of DMSO was defined as 100%, and the luciferase activity from the addition of 1 μM human PYY(3-36) instead of the test compound was defined as 0%. The NPY2R agonist activity was calculated with a decrease in intracellular cAMP concentration as an index.
For orientation: A reporter such as luciferase makes a cellular process visible.

Another test concerns male C57BL/6J mouse. The experiment in a line: Evaluation of feeding suppressive action in mice. The test is classed as in vivo. The conditions noted are these: 3-days cumulative food consumption vs solvent control. An outline of the steps: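 Male C57BL/6J mice, 8-9 weeks, ad libitum fed, given compound (30 or 100 nmol/2 mL in 10% DMSO saline) s.c. at 2 mL/kg once daily for 3 days. Cumulative 3-day food consumption measured by weighing; suppression rate (%) calculated relative to vehicle controls.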

As a reminder, the EC50 is the concentration at which the effect is half-maximal.

SMILES strings stand for the structures. Square brackets hold non-standard residues; d marks the D form. Side chains are listed from the residue outwards. Peptide text beside a SMILES is read from it. * marks the point of attachment. C18 diacid = O=C(O)CCCCCCCCCCCCCCCCC(=O)*; Phe(2-F) = N[C@@H](Cc1ccccc1F)C(=O)O; NMeY = CN[C@@H](Cc1ccc(O)cc1)C(=O)O; αMeF = C[C@](N)(Cc1ccccc1)C(=O)O; Iva = CC[C@](C)(N)C(=O)O; Aib = CC(C)(N)C(=O)O

Consider `CC[C@H](C)[C@H](NC(=O)C(C)(C)NC(=O)[C@H](CCCCNC(=O)CNC(=O)CNC(=O)CNC(=O)CNC(=O)CCCCCCCCCCCCCCCCC(=O)O)NC(=O)[C@H](CC(=O)O)NC(=O)[C@H](CO)NC(=O)[C@@H](NC(=O)[C@](C)(Cc1ccccc1)NC(=O)[C@@H](NC(=O)CNC(=O)[C@H](CCC(=O)O)NC(=O)C(C)(C)NC(=O)[C@@H](N)Cc1ccc(O)cc1)[C@@H](C)O)[C@@H](C)O)C(=O)NC(C)(C)C(=O)N[C@@H](CC(C)C)C(=O)N[C@@H](CC(=O)O)C(=O)N[C@@H](CCCCN)C(=O)N[C@@H](CCC(N)=O)C(=O)N[C@@H](C)C(=O)N[C@@H](CCC(N)=O)C(=O)N[C@@](C)(CC)C(=O)N[C@@H](CCC(=O)O)C(=O)N[C@@H](Cc1ccccc1)C(=O)N[C@H](C(=O)N[C@@H](CCCNC(=N)N)C(=O)N[C@@H](Cc1c[nH]cn1)C(=O)N[C@@H](CC(C)C)C(=O)N[C@@H](CC(C)C)C(=O)N[C@@H](CC(N)=O)C(=O)N[C@@H](CCCCN)C(=O)NC(C)(C)C(=O)N[C@H](C(=O)N[C@@H](CCCNC(=N)N)C(=O)N[C@@H](CCC(N)=O)C(=O)N[C@@H](CCCNC(=N)N)C(=O)N[C@@H](Cc1ccccc1F)C(N)=O)[C@@H](C)O)C(C)C` [Example 2] (H-Y[Aib]EGT[αMeF]TSDK([Gly-Gly-Gly-Gly-C18 diacid])[Aib]I[Aib]LDKQAQ[Iva]EFVRHLLNK[Aib]TRQR[Phe(2-F)]-NH2), for which the half-maximal effective concentration (EC50) on human NPY2R is 2.1 nM. Besides, the “Rate of feeding suppression (%)” value with male C57BL/6J mouse (100 nmol/kg s.c. once a day for 3 days) was −77.3%.
As for `CC[C@H](C)[C@H](NC(=O)C(C)(C)NC(=O)[C@H](CCCCNC(=O)CNC(=O)CNC(=O)CNC(=O)CNC(=O)CCCCCCCCCCCCCCCCC(=O)O)NC(=O)[C@H](CC(=O)O)NC(=O)[C@H](CO)NC(=O)[C@@H](NC(=O)[C@](C)(Cc1ccccc1)NC(=O)[C@@H](NC(=O)CNC(=O)[C@H](CCC(=O)O)NC(=O)C(C)(C)NC(=O)[C@@H](N)Cc1ccc(O)cc1)[C@@H](C)O)[C@@H](C)O)C(=O)NC(C)(C)C(=O)N[C@@H](CC(C)C)C(=O)N[C@@H](CC(=O)O)C(=O)N[C@@H](CCCCN)C(=O)N[C@@H](CCC(N)=O)C(=O)N[C@@H](CCCNC(=N)N)C(=O)N[C@@H](CCC(N)=O)C(=O)N[C@@](C)(CC)C(=O)N[C@@H](CCC(=O)O)C(=O)N[C@@H](Cc1ccccc1)C(=O)N[C@H](C(=O)N[C@@H](CCCNC(=N)N)C(=O)N[C@@H](Cc1c[nH]cn1)C(=O)N[C@@H](CC(C)C)C(=O)N[C@@H](CC(C)C)C(=O)N[C@@H](CC(N)=O)C(=O)N[C@@H](CCCCN)C(=O)NC(C)(C)C(=O)N[C@H](C(=O)N[C@@H](CCCNC(=N)N)C(=O)N[C@@H](CCC(N)=O)C(=O)N[C@@H](CCCNC(=N)N)C(=O)N[C@@H](Cc1ccc(O)cc1)C(N)=O)[C@@H](C)O)C(C)C` [Example 8] (H-Y[Aib]EGT[αMeF]TSDK([Gly-Gly-Gly-Gly-C18 diacid])[Aib]I[Aib]LDKQRQ[Iva]EFVRHLLNK[Aib]TRQRY-NH2), on human NPY2R, the 50% effective concentration (EC50) worked out at 2.1 nM.
Take `CC[C@H](C)[C@H](NC(=O)[C@H](CO)NC(=O)[C@H](CCCCNC(=O)CNC(=O)CNC(=O)CNC(=O)CNC(=O)CCCCCCCCCCCCCCCCC(=O)O)NC(=O)[C@H](CC(=O)O)NC(=O)[C@H](CO)NC(=O)[C@@H](NC(=O)[C@](C)(Cc1ccccc1)NC(=O)[C@@H](NC(=O)CNC(=O)[C@H](CCC(=O)O)NC(=O)C(C)(C)NC(=O)[C@@H](N)Cc1ccc(O)cc1)[C@@H](C)O)[C@@H](C)O)C(=O)NC(C)(C)C(=O)N[C@@H](CC(C)C)C(=O)N[C@@H](CC(=O)O)C(=O)N[C@@H](CCCCN)C(=O)N[C@@H](CCC(N)=O)C(=O)N[C@@H](CCCNC(=N)N)C(=O)N[C@@H](CCC(N)=O)C(=O)N[C@@](C)(CC)C(=O)N[C@@H](CCC(=O)O)C(=O)N[C@@H](Cc1ccccc1)C(=O)N[C@H](C(=O)N[C@@H](CCCNC(=N)N)C(=O)N[C@@H](Cc1c[nH]cn1)C(=O)N[C@@H](CC(C)C)C(=O)N[C@@H](CC(C)C)C(=O)N[C@@H](CC(N)=O)C(=O)N[C@@H](CCCCN)C(=O)NC(C)(C)C(=O)N[C@H](C(=O)N[C@@H](CCCNC(=N)N)C(=O)N[C@@H](CCC(N)=O)C(=O)N[C@@H](CCCNC(=N)N)C(=O)N[C@@H](Cc1ccc(O)cc1)C(N)=O)[C@@H](C)O)C(C)C` [Example 16] (H-Y[Aib]EGT[αMeF]TSDK([Gly-Gly-Gly-Gly-C18 diacid])SI[Aib]LDKQRQ[Iva]EFVRHLLNK[Aib]TRQRY-NH2): the EC50 on human NPY2R was determined as 2.6 nM.
As for `CC[C@H](C)[C@H](NC(=O)C(C)(C)NC(=O)[C@H](CCCCNC(=O)CNC(=O)CNC(=O)CNC(=O)CNC(=O)CCCCCCCCCCCCCCCCC(=O)O)NC(=O)[C@H](CC(=O)O)NC(=O)[C@H](CO)NC(=O)[C@@H](NC(=O)[C@](C)(Cc1ccccc1)NC(=O)[C@@H](NC(=O)CNC(=O)[C@H](CCC(=O)O)NC(=O)C(C)(C)NC(=O)[C@H](Cc1ccc(O)cc1)NC)[C@@H](C)O)[C@@H](C)O)C(=O)NC(C)(C)C(=O)N[C@@H](CC(C)C)C(=O)N[C@@H](CCC(=O)O)C(=O)N[C@@H](CCCCN)C(=O)N[C@@H](CCC(N)=O)C(=O)N[C@@H](CCCNC(=N)N)C(=O)N[C@@H](CCC(N)=O)C(=O)N[C@@](C)(CC)C(=O)N[C@@H](CCC(=O)O)C(=O)N[C@@H](Cc1ccccc1)C(=O)N[C@H](C(=O)N[C@@H](CCCNC(=N)N)C(=O)N[C@@H](Cc1c[nH]cn1)C(=O)N[C@@H](CC(C)C)C(=O)N[C@@H](CC(C)C)C(=O)N[C@@H](CC(N)=O)C(=O)N[C@@H](CCCCN)C(=O)NC(C)(C)C(=O)N[C@H](C(=O)N[C@@H](CCCNC(=N)N)C(=O)N[C@@H](CCC(N)=O)C(=O)N[C@@H](CCCNC(=N)N)C(=O)N[C@@H](Cc1ccc(O)cc1)C(N)=O)[C@@H](C)O)C(C)C` [Example 34] (H-[NMeY][Aib]EGT[αMeF]TSDK([Gly-Gly-Gly-Gly-C18 diacid])[Aib]I[Aib]LEKQRQ[Iva]EFVRHLLNK[Aib]TRQRY-NH2), the EC50 at human NPY2R came out at 1.5 nM. Besides, the “Rate of feeding suppression (%)” value in the test on male C57BL/6J mouse (30 nmol/kg s.c. once a day for 3 days) is −39.9%.

The values are drawn from patent US10501516B2, “Peptide compound” (TAKEDA PHARMACEUTICAL COMPANY LIMITED, priority 2016, dated 2019).
